# Patent US12510533B2, “Methods for treating multiple myeloma and the use of companion biomarkers for 4-(4-(4-(((2-(2,6-dioxopiperidin-3-yl)-1-oxoisoindolin-4-yl)oxy)methyl)benzyl)piperazin-1-yl)-3-fluorobenzonitrile” (Celgene Corporation, priority 2018, dated 2025)
# pIC50: −log10 of the molar value.
# Key:
# K562 cells = test: Killing of untreated K562 cells by IL-2-activated PBMCs treated with compound (co-culture, Annexin V/PI); type: cell-based; conditions: Homo sapiens, IL-2-activated PBMCs treated 72 hours, read-out: IC50, direct K562 cell killing by treated PBMCs
# Procedure: Freshly isolated human PBMCs were cultured with recombinant IL-2 at concentration of 20 units/mL for 72 hours. Peripheral blood mononuclear cells were then spun down and re-suspended in fresh RPMI complete medium to 2×10^6 cells/mL. Cells were then treated with DMSO or Compound 2 at the indicated concentrations and incubated for an additional 72 hours. The PBMCs were then washed twice in fresh RPMI complete medium prior to coculture. K562 cells were re-suspended to a cell density of 1×10^6 cells/mL and stained with 1 μM CellTrace CFSE according to manufacturer's instructions. The labeled K562 cells were then seeded into a 96-well round bottom plate at 1×10^5 cells/well. […] Specific target cell lysis by PBMC mediated apoptosis was measured using Annexin V-fluorescein isothiocyanate (FITC) and propidium iodide (PI) according to manufacturer's instructions and samples were run on the FACS Array scan. […] All myeloma cell lines were kept in log phase, and cell density and viability were monitored by trypan blue exclusion using the Vi-CELL XR cell viability analyzer. […] Frozen PBMC donors, were thawed at 37° C. for 2 minutes in RPMI medium with 10% FBS and cell counts and viability were measured on the Vi-CELL® (Beckman Coulter). […] Peripheral blood mononuclear cells were counted and added to the MM cells at a target:effector (T:E) ratio of 1:5. […]
# Ikaros = Ikaros (Homo sapiens, UniProt Q13422+Q96SW2); test: Ikaros degradation in CD8+ T cells; type: cell-based; parameters: The effects of Compound 2 on the degradation of Ikaros in CD4+ and CD8+ T cells; endogenous in cells; host or cells: CD4+ and CD8+ T cells of healthy donors; CD34+ bone marrow cells of healthy donors; CD3+ T cells of multiple myeloma patients; conditions: 24 hours (data not shown), read-out: Ikaros degradation IC50
# Sequence of Ikaros (Q13422 whole entry): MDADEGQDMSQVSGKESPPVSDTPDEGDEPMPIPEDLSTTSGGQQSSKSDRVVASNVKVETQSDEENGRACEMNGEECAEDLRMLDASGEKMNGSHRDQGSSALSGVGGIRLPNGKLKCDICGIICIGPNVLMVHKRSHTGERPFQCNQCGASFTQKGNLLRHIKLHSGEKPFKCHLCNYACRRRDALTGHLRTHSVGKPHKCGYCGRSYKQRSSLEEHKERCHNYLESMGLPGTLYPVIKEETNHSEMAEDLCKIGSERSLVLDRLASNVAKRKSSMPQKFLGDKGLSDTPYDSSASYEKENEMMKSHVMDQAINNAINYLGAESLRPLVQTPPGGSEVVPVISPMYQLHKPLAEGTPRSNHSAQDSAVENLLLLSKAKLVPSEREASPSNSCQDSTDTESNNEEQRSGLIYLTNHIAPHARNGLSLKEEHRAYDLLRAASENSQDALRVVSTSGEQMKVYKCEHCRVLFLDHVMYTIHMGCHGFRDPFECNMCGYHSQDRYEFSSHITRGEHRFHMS
# Sequence of Ikaros (Q16531 2-1140, further chain): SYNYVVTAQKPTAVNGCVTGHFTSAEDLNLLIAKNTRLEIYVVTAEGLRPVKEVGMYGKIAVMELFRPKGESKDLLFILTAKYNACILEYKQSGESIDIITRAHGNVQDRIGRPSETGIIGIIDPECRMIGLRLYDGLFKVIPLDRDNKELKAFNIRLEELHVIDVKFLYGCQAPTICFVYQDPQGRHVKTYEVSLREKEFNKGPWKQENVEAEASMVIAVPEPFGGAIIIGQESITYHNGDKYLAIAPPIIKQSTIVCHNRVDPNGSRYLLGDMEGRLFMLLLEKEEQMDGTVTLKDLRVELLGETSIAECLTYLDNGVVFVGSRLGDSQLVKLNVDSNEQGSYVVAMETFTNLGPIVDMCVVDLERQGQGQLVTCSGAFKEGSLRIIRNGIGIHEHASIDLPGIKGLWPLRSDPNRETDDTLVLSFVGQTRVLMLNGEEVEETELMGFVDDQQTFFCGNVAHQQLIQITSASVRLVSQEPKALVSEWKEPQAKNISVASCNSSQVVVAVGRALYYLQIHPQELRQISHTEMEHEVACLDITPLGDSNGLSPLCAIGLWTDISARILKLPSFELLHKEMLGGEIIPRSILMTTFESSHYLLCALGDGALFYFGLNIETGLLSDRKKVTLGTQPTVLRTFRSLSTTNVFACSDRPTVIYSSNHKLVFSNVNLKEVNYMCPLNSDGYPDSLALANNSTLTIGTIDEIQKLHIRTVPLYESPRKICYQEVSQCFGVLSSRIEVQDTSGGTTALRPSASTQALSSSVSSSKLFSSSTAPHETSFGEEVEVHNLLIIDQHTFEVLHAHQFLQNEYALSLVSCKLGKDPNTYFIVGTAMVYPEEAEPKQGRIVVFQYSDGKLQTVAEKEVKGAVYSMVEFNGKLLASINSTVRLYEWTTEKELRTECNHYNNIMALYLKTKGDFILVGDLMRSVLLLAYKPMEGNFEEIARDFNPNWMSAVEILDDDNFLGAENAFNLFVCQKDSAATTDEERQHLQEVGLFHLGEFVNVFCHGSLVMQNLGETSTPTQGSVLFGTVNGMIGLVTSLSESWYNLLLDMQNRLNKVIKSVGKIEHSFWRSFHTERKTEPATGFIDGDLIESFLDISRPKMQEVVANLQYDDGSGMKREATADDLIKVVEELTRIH
# Sequence of Ikaros (Q96SW2 whole entry): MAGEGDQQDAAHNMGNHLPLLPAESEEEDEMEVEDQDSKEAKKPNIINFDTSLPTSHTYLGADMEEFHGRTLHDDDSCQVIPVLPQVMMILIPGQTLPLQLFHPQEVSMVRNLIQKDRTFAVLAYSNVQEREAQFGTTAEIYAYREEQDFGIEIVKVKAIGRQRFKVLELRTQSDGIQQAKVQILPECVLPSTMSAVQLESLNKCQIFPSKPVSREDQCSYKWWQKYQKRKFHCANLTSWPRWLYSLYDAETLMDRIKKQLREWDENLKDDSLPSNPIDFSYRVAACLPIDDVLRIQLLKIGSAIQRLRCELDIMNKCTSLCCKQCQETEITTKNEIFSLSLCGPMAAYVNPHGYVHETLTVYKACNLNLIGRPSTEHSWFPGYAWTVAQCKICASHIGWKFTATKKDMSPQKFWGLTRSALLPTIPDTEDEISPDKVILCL
# Procedure: The effects of Compound 2 on the degradation of Ikaros in CD4+ and CD8+ T cells over a 72 hour time course were investigated. The ability of Compound 2 to induce effector cytokine release correlated with degradation of Ikaros in CD4+ T cells, a known transcriptional repressor of IL-2 (FIG. 22A-FIG. 22C). […] The ability of Compound 2 to degrade Ikaros was also observed at the 48 and 72 hour time point in both CD4+(FIG. 22B and FIG. 22C) and CD8+ (data not shown) T cell populations. […] Thus, Ikaros and Aiolos can serve as biomarkers of T-cell activation.
# Aiolos and Ikaros = Aiolos and Ikaros degradation and re-expression by flow cytometry in H929-1051 and OPM2-P10 cells; type: cell-based, human
# Procedure: The cell lines were treated with a single continuous exposure to Compound 2, with no washout, and the levels of Aiolos and Ikaros were measured by flow cytometry. After treatment there was greater than 70% degradation of Aiolos and Ikaros within 3 to 6 hours, depending on the cell line (FIG. 7A and FIG. 7B). The depletion of substrates was sustained for up to 70 hours in H929-1051 cells or up to 100 hours in OPM2-P10 cells (FIG. 7A and FIG. 7B). Increasing the concentration 10-fold to 0.1 μM produced little to no additional degradation (FIG. 7A and FIG. 7B).
# The effect of transient exposures of H929-1051 cells to Compound 2 on the degradation of Aiolos and Ikaros was also evaluated. A short transient exposure of 15 minutes at 0.1 μM Compound 2 induced Aiolos and Ikaros degradation (FIG. 8). Although the extent of degradation (25% to 50%) was not complete, a prolonged pharmacodynamic (PD) effect was seen that lasted between 25 and 50 hours post-exposure (FIG. 8).
# To further understand the kinetics of Compound 2 exposure and Aiolos and Ikaros degradation, a longer exposure of 6 hours to Compound 2 (0.01 and 0.1 μM), followed by washout was investigated. Treatment with Compound 2 produced greater than 70% degradation of Aiolos and Ikaros (FIG. 9). […] Greater than 75% substrate recovery was seen by 25 hours in cells exposed to 0.01 μM Compound 2 and within 75 to 100 hours in cultures exposed to 0.1 μM Compound 2 (FIG. 9).
# [1] = tested on: H929-1051 and OPM2-P10 cells; test: Apoptosis induction in H929-1051 and OPM2-P10 multiple myeloma cells; type: cell-based, human; conditions: 15 minute or 6 hour transient exposure
# Procedure: FIG. 10 illustrates that continuous, but not transient, exposure to Compound 2 induced apoptosis in multiple myeloma cells. Apoptosis induction by Compound 2 treatment in a lenalidomide-resistant MM cell model (H929-1051 [top row] and a pomalidomide-resistant MM cell model OPM2-P10 [bottom row]) is presented.
# The effect of Aiolos and Ikaros degradation on induction of apoptosis was also evaluated. The nearly complete and prolonged substrate suppression observed upon continuous exposure of Compound 2 coincided with apoptosis induction in MM cells (FIG. 10). A continuous single exposure to 0.01 and 0.1 μM Compound 2 led to induction of apoptosis in H929-1051 and OPM2-P10 cells (within 50 to 75 hours) (FIG. 10).
# [2] = continuous exposure, OPM2-P10 cells
smiles,measurement,setting,value
"N#Cc1ccc(N2CCN(Cc3ccc(COc4cccc5c4CN([C@H]4CCC(=O)NC4=O)C5=O)cc3)CC2)c(F)c1 [Compound 2, (S)-4-(4-(4-(((2-(2,6-dioxopiperidin-3-yl)-1-oxoisoindolin-4-yl)oxy)methyl)benzyl)piperazin-1-yl)-3-fluorobenzonitrile]",pIC50,K562 cells,11.23
same,DC50,Ikaros,0.5 nM
same,degradation of Aiolos and Ikaros,Aiolos and Ikaros; 6 hours exposure (0.01 and 0.1 μM) followed by washout,greater than 70%
same,duration of sustained depletion of substrates,"Aiolos and Ikaros; continuous exposure, H929-1051 cells",up to 70 hours
same,duration of sustained degradation of both proteins (Aiolos and Ikaros),Aiolos and Ikaros; [2],more than 150 hours
same,duration of sustained depletion of substrates,Aiolos and Ikaros; [2],up to 100 hours
same,degradation of Aiolos and Ikaros,"Aiolos and Ikaros; single continuous exposure, no washout, H929-1051 and OPM2-P10",greater than 70%
same,effect of transient exposure on apoptosis,[1],precluded the induction of apoptosis
